Reference: ChEMBL document CHEMBL4118082 (Eur J Med Chem, 2017)
≈ marks a conversion by molar mass, not a printed value.

How the values were obtained:
[1] = system: Mycobacterium avium; assay: Antimycobacterial activity against Mycobacterium avium ssp. avium ATCC 15769 harboring pSMT1 carrying luxAB gene after 6 days by luminescence based serial dilution method; assay type: functional, Mycobacterium avium subsp. avium; details: ATCC 15769, 144 h
[2] = system: Mycobacterium avium; assay: Antimycobacterial activity against Mycobacterium avium ssp. paratuberculosis ATCC 19698 harboring pSMT1 carrying luxAB gene after 6 days by luminescence based serial dilution method; assay type: functional, Mycobacterium avium subsp. paratuberculosis; details: ATCC 19698, 144 h
[3] = system: Mycolicibacterium smegmatis; assay: Antimycobacterial activity against Mycobacterium smegmatis MC2 155 harboring pSMT1 carrying luxAB gene after 6 days by luminescence based serial dilution method; assay type: functional; details: str. MC2 155, 144 h
[4] = Cytotoxicity against human MRC5 cells assessed as reduction in cell viability after 24 hrs by neutral red uptake assay; assay type: cell-based

SMILES	MIC90 [1] [µM]	MIC90 [2] [µM]	MIC90 [3] [µM]	CC50 at 24 h [4] [µM]
NNC(=O)c1ccncc1 [ISONIAZID]	< 0.1	< 0.1	< 0.1	–
O=c1c(-c2ccccc2)c(O)c2ccccc2n1-c1ccccc1	35.4 (≈ 11.1 µg/mL)	23.8 (≈ 7.46 µg/mL)	10.3 (≈ 3.23 µg/mL)	> 128
O=c1[nH]c2c(O)cccc2c(O)c1-c1ccccc1	17 (≈ 4.31 µg/mL)	13.7 (≈ 3.47 µg/mL)	20 (≈ 5.07 µg/mL)	84.1
COc1ccc2[nH]c(=O)c(-c3ccccc3)c(O)c2c1	17.5 (≈ 4.68 µg/mL)	18.6 (≈ 4.97 µg/mL)	15.3 (≈ 4.09 µg/mL)	75.4
Oc1nc2ccccc2c(O)c1-c1ccccc1	19.8 (≈ 4.7 µg/mL)	21.2 (≈ 5.03 µg/mL)	23.5 (≈ 5.58 µg/mL)	96.5
O=c1[nH]c2ccc(O)cc2c(O)c1-c1ccccc1	15.6 (≈ 3.95 µg/mL)	13.2 (≈ 3.34 µg/mL)	16.8 (≈ 4.25 µg/mL)	> 128
O=c1[nH]c2cc(O)ccc2c(O)c1-c1ccccc1	16.3 (≈ 4.13 µg/mL)	15.7 (≈ 3.98 µg/mL)	18.5 (≈ 4.69 µg/mL)	92.1
COc1cccc2c(O)c(-c3ccccc3)c(O)nc12	13 (≈ 3.47 µg/mL)	18 (≈ 4.81 µg/mL)	15.1 (≈ 4.04 µg/mL)	104
Cc1cc2[nH]c(=O)c(-c3ccccc3)c(O)c2cc1C	15.7 (≈ 4.17 µg/mL)	20.3 (≈ 5.39 µg/mL)	17.3 (≈ 4.59 µg/mL)	61.8
COc1ccc2c(O)c(-c3ccccc3)c(=O)[nH]c2c1	13.8 (≈ 3.69 µg/mL)	16.5 (≈ 4.41 µg/mL)	19.5 (≈ 5.21 µg/mL)	59
CC(=O)Oc1c(-c2ccccc2)c(=O)[nH]c2ccc(F)cc12	8.9 (≈ 2.65 µg/mL)	7.5 (≈ 2.23 µg/mL)	9.5 (≈ 2.82 µg/mL)	88.4
O=c1[nH]c2ccc(F)cc2c(O)c1-c1ccccc1	8.5 (≈ 2.17 µg/mL)	11.5 (≈ 2.94 µg/mL)	8.4 (≈ 2.14 µg/mL)	67.4
Cc1c(O)c2ccccc2[nH]c1=O	18.4 (≈ 3.22 µg/mL)	14.5 (≈ 2.54 µg/mL)	23.2 (≈ 4.06 µg/mL)	84.7
Cc1ccc2[nH]c(=O)c(-c3ccccc3)c(O)c2c1	12.6 (≈ 3.17 µg/mL)	13.2 (≈ 3.32 µg/mL)	19.2 (≈ 4.82 µg/mL)	> 128
